# Values quoted from earlier work, collected in patent publication US20090163510A1 (Bristol-Myers Squibb Company, priority 2005, published 2009).
# Structures can show the parent of a compound that is named as a salt. Where two headings read alike, the source gives them in different places.
# System: CML
# Details: CML patients, Kantarjian et al.
structure (smiles),measurement,setting,value
"Cc1ccc(NC(=O)c2ccc(CN3CCN(C)CC3)cc2)cc1Nc1nccc(-c2cccnc2)n1 [imatinib, Imatinib mesylate]",estimated 2-year incidence of resistance,blastic phase,80%
same,estimated 2-year incidence of resistance,chronic phase post-interferon failure,10%
